# Like-named read-outs stand apart in the source and are kept apart here.
# System: CD14^+ cells
# Experiment: In vitro dose response in NHL patient PBMC; total CD14^+ cell survival
# Type: cell-based, human
# Settings: for EC50: Homo sapiens, PBMC, 120 h, read-out: ED50 (50% of cells killed); for EC50 / ED80 (80% of cells killed): 5 days of culture; for drug sensitivity in vitro: post in vivo DEHOP administration blood specimens
# Experimental: To test whether patient macrophages would respond to administration of DEHOP in vitro, CD14 cells in a peripheral blood mononuclear cell preparation (PBMC) were exposed to different concentrations of DEHOP and the proportion of CD14 positive cells surviving at the end of 5 days of culture was assessed in drug treated cells as compared to controls. Specimens obtained pre chemotherapy were compared to specimens obtained 2 weeks post therapy. […] For patient four, the first specimen was obtained one day after the first cycle of DEHOP; the second specimen was obtained one week later. The effective dose 50 (where 50% of cells were killed), and effective dose 80 (where 80% of cells were killed) were calculated for each set of patient specimens exposed to DEHOP in vitro.
smiles,measurement,setting,value
"CCNCCCCNCCCCNCCCCNCC [DEHOP, 1,14-bis(ethylamino)-5,10-diazatetradecane]",EC50,"patient one, Pre specimen",10 µM
same,EC50,"patient three, Post specimen",0.1 µM
same,EC50,"patient three, Pre specimen",10 µM
same,EC50,"patient two, Post specimen",> 10 µM
same,EC50,"patient two, Pre specimen",1 µM
same,ED80 (80% of cells killed),"patient four, Post specimen",0.1 µM
same,ED80 (80% of cells killed),"patient four, Pre specimen",1.0 µM
same,ED80 (80% of cells killed),"patient one, Pre specimen",>10 µM
same,ED80 (80% of cells killed),"patient three, Post specimen",0.8 µM
same,ED80 (80% of cells killed),"patient three, Pre specimen",>10 µM
same,ED80 (80% of cells killed),"patient two, Post specimen",>10 µM
same,ED80 (80% of cells killed),"patient two, Pre specimen",>10 µM
same,drug sensitivity in vitro,patient two,persistently resistant to drug
same,drug sensitivity in vitro,patients,marked drug sensitivity
